From ChEMBL document CHEMBL5154661, “Novel 2-phenyl-3-(Pyridin-2-yl) thiazolidin-4-one derivatives as potent inhibitors for proliferation of osteosarcoma cells in vitro and in vivo” (Eur J Med Chem, 2022)
≈ marks a conversion by molar mass, not a printed value.

What was measured:
[1] = system: HOS-TE85; assay: Antiproliferative activity against human MNNG/HOS cells assessed as cell growth inhibition measured after 72 hrs by CCK-8 assay; type: functional, cell-based; conditions: HOS-TE85, 72 h
[2] = Microsomal stability in human liver microsomes assessed as intrinsic clearance at 0.1 uM incubated for 10 mins in presence of NADPH by LC-MS/MS analysis; type: ADME, Microsome
[3] = Microsomal stability in rat liver microsomes assessed as intrinsic clearance at 0.1 uM incubated for 10 mins in presence of NADPH by LC-MS/MS analysis; type: ADME, Microsome
[4] = Microsomal stability in mouse liver microsomes assessed as intrinsic clearance at 0.1 uM incubated for 10 mins in presence of NADPH by LC-MS/MS analysis; type: ADME, Microsome
[5] = Kinetic solubility of compound at pH 6.8 by turbidimetry method; type: physicochemical; conditions: buffer, read-out: Kinetic_solubility
[6] = Kinetic solubility of compound at pH 7.4 by turbidimetry method; type: physicochemical; conditions: buffer, read-out: Kinetic_solubility
[7] = system: SJSA-1; assay: Antiproliferative activity against human SJSA-1 assessed as cell growth inhibition at 1 uM measured after 72 hrs by CCK-8 assay relative to control; type: functional
[8] = system: U2OS; assay: Antiproliferative activity against human U2OS cells assessed as cell growth inhibition at 1 uM measured after 72 hrs by CCK-8 assay relative to control; type: functional
[9] = system: HOS; assay: Antiproliferative activity against human HOS cells assessed as cell growth inhibition at 1 uM measured after 72 hrs by CCK-8 assay relative to control; type: functional
[10] = system: HOS-TE85; assay: Antiproliferative activity against human MNNG/HOS cells assessed as cell growth inhibition at 1 uM measured after 72 hrs by CCK-8 assay relative to control; type: functional
[11] = system: MG-63; assay: Antiproliferative activity against human MG-63 cells assessed as cell growth inhibition at 1 uM measured after 72 hrs by CCK-8 assay relative to control; type: functional
[12] = system: 143B; assay: Antiproliferative activity against human 143B cells assessed as cell growth inhibition at 1 uM measured after 72 hrs by CCK-8 assay relative to control; type: functional
[13] = system: SJSA-1; assay: Antiproliferative activity against human SJSA-1 cells assessed as cell growth inhibition measured after 72 hrs by CCK-8 assay; type: functional, cell-based; conditions: SJSA-1, 72 h
[14] = system: MG-63; assay: Antiproliferative activity against human MG-63 cells assessed as cell growth inhibition measured after 72 hrs by CCK-8 assay; type: functional, cell-based; conditions: MG-63, 72 h

Compound	intrinsic clearance (CLint) [2] [mL/min/g]	intrinsic clearance (CLint) [3] [mL/min/g]	intrinsic clearance (CLint) [4] [mL/min/g]	solubility kinetic [5] [µM]	solubility kinetic [6] [µM]	IC50 [13] [nM]	IC50 [1] [nM]	inhibition at 1 µM [7] [%]	inhibition at 1 µM [8] [%]	inhibition at 1 µM [9] [%]	inhibition at 1 µM [10] [%]	inhibition at 1 µM [11] [%]	inhibition at 1 µM [12] [%]	IC50 [14] [nM]
Cc1cccc(N2C(=O)CSC2c2cccc(C(=O)NCCCCc3ccccc3)c2)c1 (centres undefined)	2553	3139	2936	10 (≈ 4.45 µg/mL)	10 (≈ 4.45 µg/mL)		93.2	84	39	84	96	93	71	
O=C(NCCCCc1ccccc1)c1cccc(C2SCC(=O)N2c2ccccc2F)c1 (centres undefined)	1712	2946	2014	20 (≈ 8.97 µg/mL)	10 (≈ 4.49 µg/mL)		34.1	80	38	83	95	92	59	
COc1ccccc1N1C(=O)CSC1c1cc(F)cc(C(=O)O)c1 (centres undefined)							> 1000	0	15	8	0	0	0	
CCOc1ccccc1N1C(=O)C(C)SC1c1cccc(C(=O)NCCCCc2ccccc2)c1 (centres undefined)							71.6	85	37	82	94	92	53	

Now from value to compound, other results behind:

intrinsic clearance (CLint) [2] [mL/min/g]	intrinsic clearance (CLint) [3] [mL/min/g]	intrinsic clearance (CLint) [4] [mL/min/g]	solubility kinetic [5] [µM]	solubility kinetic [6] [µM]	IC50 [13] [nM]	Compound	IC50 [1] [nM]	inhibition at 1 µM [7] [%]	inhibition at 1 µM [8] [%]	inhibition at 1 µM [9] [%]	inhibition at 1 µM [10] [%]	inhibition at 1 µM [11] [%]	inhibition at 1 µM [12] [%]	IC50 [14] [nM]
1750	2323	2014	10 (≈ 4.95 µg/mL)	2 (≈ 0.989 µg/mL)		CC(F)(F)c1cccc(N2C(=O)CSC2c2cccc(C(=O)NCCCCc3ccccc3)c2)c1 (centres undefined)	29.1	68	24	23	93	92	1	
1844	3244	2737	10 (≈ 4.49 µg/mL)	10 (≈ 4.49 µg/mL)		O=C(NCCCCc1ccccc1)c1cccc(C2SCC(=O)N2c2cccc(F)c2)c1 (centres undefined)	32.4	80	39	84	94	92	63	
1253	2298	2247	10 (≈ 4.79 µg/mL)	10 (≈ 4.79 µg/mL)		COc1ccc(F)cc1N1C(=O)CSC1c1cccc(C(=O)NCCCCc2ccccc2)c1 (centres undefined)	8.8	76	32	46	95	86	62	
2657	2908	2948	20 (≈ 9.49 µg/mL)	10 (≈ 4.75 µg/mL)		COc1ccccc1N1C(=O)C(C)SC1c1cccc(C(=O)NCCCCc2ccccc2)c1 (centres undefined)	45.1	84	38	82	95	94	61	
128.7	1022	392	50 (≈ 21.8 µg/mL)	50 (≈ 21.8 µg/mL)	33.2	Cc1ccnc(N2C(=O)CSC2c2cccc(C(=O)NCCCCn3cccn3)c2)c1 (racemic)	19.6							38.9
